Biological target: T1, human TMC6 protein (Homo sapiens, UniProt Q7Z403)
T1 construct: expressed in transfected cells; host or cells: CHO-K1
T1 sequence (Q7Z403 1-805): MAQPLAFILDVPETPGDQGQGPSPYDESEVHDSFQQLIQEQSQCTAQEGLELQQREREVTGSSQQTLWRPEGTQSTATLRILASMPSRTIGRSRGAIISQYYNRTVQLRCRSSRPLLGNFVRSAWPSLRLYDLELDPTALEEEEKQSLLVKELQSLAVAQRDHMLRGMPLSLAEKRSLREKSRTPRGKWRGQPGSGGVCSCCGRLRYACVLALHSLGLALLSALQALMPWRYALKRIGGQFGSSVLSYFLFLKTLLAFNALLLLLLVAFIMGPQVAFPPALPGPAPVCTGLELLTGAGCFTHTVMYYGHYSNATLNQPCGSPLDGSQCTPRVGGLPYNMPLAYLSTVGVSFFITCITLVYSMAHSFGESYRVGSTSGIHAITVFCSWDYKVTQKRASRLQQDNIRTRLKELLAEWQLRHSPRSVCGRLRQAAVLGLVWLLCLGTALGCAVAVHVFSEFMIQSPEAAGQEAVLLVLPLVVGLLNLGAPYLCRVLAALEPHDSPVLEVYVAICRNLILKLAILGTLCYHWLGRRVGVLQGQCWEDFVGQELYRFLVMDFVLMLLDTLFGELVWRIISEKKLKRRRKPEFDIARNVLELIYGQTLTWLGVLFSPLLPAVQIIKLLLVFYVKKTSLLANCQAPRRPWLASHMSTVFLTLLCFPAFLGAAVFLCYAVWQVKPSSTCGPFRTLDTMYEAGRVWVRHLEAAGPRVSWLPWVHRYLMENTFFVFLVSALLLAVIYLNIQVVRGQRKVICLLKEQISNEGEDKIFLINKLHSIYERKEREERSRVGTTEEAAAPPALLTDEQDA
Experiment: Calcium imaging (YC2.60 FRET) of CHO-K1 cells expressing the human TMC6 gene
Format: cell-based
Details: stimulation with high-concentration NaCl solution (135 mM NaCl)
Protocol: After the cultivation, the culture broth was removed. A low-concentration NaCl solution (27 mM NaCl, 1 mM KCl, 0.4 mM CaCl2, 0.2 mM MgCl2, 2 mM Hepes (pH7.3), 1 mM NaHCO3, 2 mM glucose, 2 mM sodium pyruvate, and 112 mM NMDG-Cl) was added to the culture dish, incubation was carried out statically for 5 min, and then, stimulation and observation of cells were started. First, the low-concentration NaCl solution was perfused for approximately 80 sec, to provide a ground state. […] The stimulation with the ATP stimulation solution was carried out by dropping 600 μL of the ATP stimulation solution near cells to be measured on the culture dish with a pipet within 3 sec.
Observation of the cells was carried out with a confocal laser microscope FV1200 (Olympus). […] Activation of the cells was measured using the intracellular calcium concentration as an index. The intracellular calcium concentration was measured by calcium imaging using YC2.60. YC2.60 is one of calcium-sensitive fluorescent proteins based on fluorescence resonance energy transfer (FRET). […] When calcium ions bind to YC2.60, FRET from CFP to YFP is induced, and thereby, CFP fluorescence is attenuated and YFP fluorescence is enhanced. That is, a higher intracellular calcium concentration provides a higher YFP/CFP value of a cell, which value represents the ratio of YFP fluorescence intensity with respect to CFP fluorescence intensity. […]

For [Cl-].[Na+] [NaCl, sodium chloride], the “change of YFP/CFP value (intracellular calcium concentration, cell activation)” value was “increase”.

Reference: US10175228B2, “Method of using transmembrane channel-like protein 6 (TMC6) protein to identify substances affecting salty taste” (priority 2016, dated 2019)
